Data on ten molecules can be found in patent publication US20240132489A1, “AROMATIC HETEROCYCLIC COMPOUND, PHARMACEUTICAL COMPOSITION, AND USE THEREOF” (GT APEIRON THERAPEUTICS LIMITED, priority 2020, published 2024).

One experiment relates to A2780 cells. Description: Cell bioactivity detection (CyQuant), A2780. In kind it is cell-based, human. Particulars: Homo sapiens, A2780, 72 h, ovarian carcinoma cells A2780, 72 hours. As to the method: (§1) Trypsinization was performed on A2780 and HCC70 cells. Cell suspensions were respectively transferred to 15 mL of centrifuge tubes and centrifuged at 800 rpm for 5 min. The supernatant was discarded. Resuspension in a fresh culture medium (RPMI 1640+10% FBS) was performed. After counting, the cells were inoculated at 2000/well in a 384-well plate (50 φL of 1640+10% FBS culture medium was added to the 2nd line and the 23rd line of the 384-well plate, and 50 μL of DPBS was added to surrounding wells). Incubation in an incubator (37° C., 5% CO2) was performed overnight.
(§2) The compound was added to the well plate the next day. The compound had the highest concentration of 10 μM and was diluted at the ratio of 1:4 to form 9 concentrations. The positive compound Paclitaxel had the highest concentration of 1 μM and was diluted at the ratio of 1:3 to form 9 concentrations. The DMSO content of each well was unified to 0.2%. A cell plate was centrifuged at 800 rpm for 30 seconds. Incubation for 72 hours in an incubator (37° C., 5% CO2) was performed. On the fourth day, a Cyquant reagent (3×) was prepared according to kit instructions. Each 384-well plate was prepared in the following proportions: DPBS: 11.568 mL, CyQuant® Direct nucleic acid stain: 72 μL, CyQuant® Direct background suppressor: 360 ILL. The plates were uniformly mixed and placed for standby application at room temperature. The cell plate was taken out and placed at room temperature to be balanced for 30 min. 25 μL of Cyquant reagent (3×) was dispensed to the cells in each well of the 384-well plates by using a Multi-drop dispenser. Incubation at 37° C. for 60 or more minutes was performed. The plates were read by Acumen (Acumen was configured to have a 488 nm excitation wavelength). IC50 results were analyzed by XLFIT5 of the IDBS company.

Experiment [1] addresses CDK12(aa686-1082)/cyclin K complex (Homo sapiens (Human), UniProt Q9NYV4). Description: In vitro enzymatic inhibitory activity test, CDK12. In kind it is biochemical. Particulars: Caliper mobility shift, 180 min at 27° C. As to the method:
(§3) CDK7/CyclinH was diluted in a test buffer solution (20 mM MES PH6.75, 0.01% Tween20, 50 ug/mL BSA, 6 mM MgCl2) to obtain a corresponding enzyme solution with a 2.4× concentration. CDK2/CyclinE1 was diluted in a test buffer solution (20 mM MES PH6.75, 0.01% Tween20, 50 ug/mL BSA, 6 mM MgCl2) to obtain a corresponding enzyme solution with a 2.4× concentration. CDK9/CyclinT1 was diluted in a test buffer solution (20 mM MES PH6.75, 0.01% Tween20, 50 ug/mL BSA, 10 mM MgCl2) to obtain a corresponding enzyme solution with a 2.4× concentration. CDK12/CyclinK was diluted in a test buffer solution (80 mM MES PH6.5, 0.01% Tween20, 50 ug/mL BSA, 10 mM MgCl2) to obtain a corresponding enzyme solution with a 2.4× concentration. The compounds were dissolved in dimethyl sulfoxide (DMSO) at a concentration of 10 mM. […] 2 ul of a test compound solution was mixed with 5 ul of enzyme solution. After incubating for 10 min, 5 ul of the mixed solution of the polypeptide substrate and ATP was added. After incubating at 27° C. for 180 min, 4 uL of EDTA with a 120 mM concentration was added to each sample to stop the reaction. […] A CDK9/cyclin TI complex (8 nM) and a “5-FAM-CDK9tide” peptide substrate (2 μM, synthetic fluorophore labeled peptide having the following sequence: 5-FAM-GSRTPMY-NH2, where 5-FAM was as defined above, and NH2 represented C-terminal amide) were used for testing the CDK9 inhibition. […] A CDK2/cyclin E1 complex (0.5 nM) and the “5-FAM-CDK7tide” (2 μM) as defined above were used for testing the CDK2 inhibition.
(§4) Electrophoretic separation was performed on Caliper EZ Reader II by means of a fluorogenic substrate and a phosphorylated product to analyze the reaction mixture. Data were calculated by using GraphPad Prism version 6.0. IC50 values were adjusted by means of a nonlinear regression model using a dose-response curve.

For a further experiment, the system named is HCC70 cells. The experiment can be described thus: Cell bioactivity detection (CyQuant), HCC70. In kind it is cell-based. As to conditions: Homo sapiens, HCC70, 72 h, human breast cancer cells HCC70, 72 hours. As to the method:
as §1, §2

In experiment [2] the target is CDK7/cyclin H/MAT1 complex (Homo sapiens (Human), UniProt P50613). The experiment can be described thus: In vitro enzymatic inhibitory activity test, CDK7. In kind it is biochemical. Particulars: Caliper mobility shift, 180 min at 27° C. As to the method: as §3, §4
A further experiment concerns the target CDK9/CyclinT1 (Homo sapiens (Human), UniProt P50750). Description: In vitro enzymatic inhibitory activity test, CDK9. In kind it is biochemical. As to conditions: Caliper mobility shift, 180 min at 27° C. As to the method:
as §3, §4

The target in a further experiment is CDK2/cyclin E1 complex (Homo sapiens (Human), UniProt P24941). The experiment can be described thus: In vitro enzymatic inhibitory activity test, CDK2. In kind it is biochemical. Particulars: Caliper mobility shift, 180 min at 27° C. As to the method: CDK7/CyclinH was diluted in a test buffer solution (20 mM MES PH6.75, 0.01% Tween20, 50 ug/mL BSA, 6 mM MgCl2) to obtain a corresponding enzyme solution with a 2.4× concentration. CDK2/CyclinE1 was diluted in a test buffer solution (20 mM MES PH6.75, 0.01% Tween20, 50 ug/mL BSA, 6 mM MgCl2) to obtain a corresponding enzyme solution with a 2.4× concentration. CDK9/CyclinT1 was diluted in a test buffer solution (20 mM MES PH6.75, 0.01% Tween20, 50 ug/mL BSA, 10 mM MgCl2) to obtain a corresponding enzyme solution with a 2.4× concentration. CDK12/CyclinK was diluted in a test buffer solution (80 mM MES PH6.5, 0.01% Tween20, 50 ug/mL BSA, 10 mM MgCl2) to obtain a corresponding enzyme solution with a 2.4× concentration. […] 2 ul of a test compound solution was mixed with 5 ul of enzyme solution. After incubating for 10 min, 5 ul of the mixed solution of the polypeptide substrate and ATP was added. After incubating at 27° C. for 180 min, 4 uL of EDTA with a 120 mM concentration was added to each sample to stop the reaction. […] A CDK9/cyclin TI complex (8 nM) and a “5-FAM-CDK9tide” peptide substrate (2 μM, synthetic fluorophore labeled peptide having the following sequence: 5-FAM-GSRTPMY-NH2, where 5-FAM was as defined above, and NH2 represented C-terminal amide) were used for testing the CDK9 inhibition. […] A CDK2/cyclin E1 complex (0.5 nM) and the “5-FAM-CDK7tide” (2 μM) as defined above were used for testing the CDK2 inhibition.
as §4

Chain of CDK9/CyclinT1 (P50750 whole entry, species assumed): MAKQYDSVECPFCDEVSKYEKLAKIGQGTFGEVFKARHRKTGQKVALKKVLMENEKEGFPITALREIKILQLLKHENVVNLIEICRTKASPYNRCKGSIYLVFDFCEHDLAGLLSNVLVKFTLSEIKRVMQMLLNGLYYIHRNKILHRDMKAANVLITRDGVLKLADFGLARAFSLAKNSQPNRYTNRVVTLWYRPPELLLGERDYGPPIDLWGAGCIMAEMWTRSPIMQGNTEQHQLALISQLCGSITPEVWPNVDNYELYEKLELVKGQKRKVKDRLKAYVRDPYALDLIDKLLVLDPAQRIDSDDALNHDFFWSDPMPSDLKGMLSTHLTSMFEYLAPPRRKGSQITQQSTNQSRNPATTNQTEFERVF
Chain of CDK9/CyclinT1 (O60563 whole entry partner, species assumed): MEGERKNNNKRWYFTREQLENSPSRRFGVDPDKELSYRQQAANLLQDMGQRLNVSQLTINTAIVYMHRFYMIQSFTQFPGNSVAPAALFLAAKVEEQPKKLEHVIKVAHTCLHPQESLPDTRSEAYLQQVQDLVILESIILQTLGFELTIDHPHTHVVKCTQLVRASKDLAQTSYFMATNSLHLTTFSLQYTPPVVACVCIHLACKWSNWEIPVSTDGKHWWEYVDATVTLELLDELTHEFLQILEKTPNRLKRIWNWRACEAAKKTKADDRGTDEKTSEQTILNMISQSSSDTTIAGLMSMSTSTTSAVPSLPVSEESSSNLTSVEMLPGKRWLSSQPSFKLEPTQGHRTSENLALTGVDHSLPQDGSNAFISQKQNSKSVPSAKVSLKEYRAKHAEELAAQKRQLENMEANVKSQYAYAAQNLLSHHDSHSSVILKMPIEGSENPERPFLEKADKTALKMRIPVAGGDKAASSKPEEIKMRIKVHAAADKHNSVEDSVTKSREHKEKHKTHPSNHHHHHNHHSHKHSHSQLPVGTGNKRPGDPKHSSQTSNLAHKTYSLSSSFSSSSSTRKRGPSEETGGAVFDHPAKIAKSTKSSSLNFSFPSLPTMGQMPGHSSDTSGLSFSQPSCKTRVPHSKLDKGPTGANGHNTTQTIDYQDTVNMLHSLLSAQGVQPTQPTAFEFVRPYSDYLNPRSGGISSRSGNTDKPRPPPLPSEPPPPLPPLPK
Chain of CDK12(aa686-1082)/cyclin K complex (Q9NYV4 686-1082, species assumed): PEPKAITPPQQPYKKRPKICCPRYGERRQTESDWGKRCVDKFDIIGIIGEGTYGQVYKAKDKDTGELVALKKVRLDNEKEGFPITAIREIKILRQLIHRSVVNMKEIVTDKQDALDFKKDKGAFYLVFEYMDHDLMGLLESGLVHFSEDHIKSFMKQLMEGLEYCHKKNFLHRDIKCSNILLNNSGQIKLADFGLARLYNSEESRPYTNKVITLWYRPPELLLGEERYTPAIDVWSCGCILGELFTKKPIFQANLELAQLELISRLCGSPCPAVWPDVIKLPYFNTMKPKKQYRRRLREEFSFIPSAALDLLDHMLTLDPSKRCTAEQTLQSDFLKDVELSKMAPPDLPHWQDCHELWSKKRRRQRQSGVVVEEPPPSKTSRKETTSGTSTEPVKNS
Chain of CDK12(aa686-1082)/cyclin K complex (O75909 whole entry partner, species assumed, the tested form may be a part): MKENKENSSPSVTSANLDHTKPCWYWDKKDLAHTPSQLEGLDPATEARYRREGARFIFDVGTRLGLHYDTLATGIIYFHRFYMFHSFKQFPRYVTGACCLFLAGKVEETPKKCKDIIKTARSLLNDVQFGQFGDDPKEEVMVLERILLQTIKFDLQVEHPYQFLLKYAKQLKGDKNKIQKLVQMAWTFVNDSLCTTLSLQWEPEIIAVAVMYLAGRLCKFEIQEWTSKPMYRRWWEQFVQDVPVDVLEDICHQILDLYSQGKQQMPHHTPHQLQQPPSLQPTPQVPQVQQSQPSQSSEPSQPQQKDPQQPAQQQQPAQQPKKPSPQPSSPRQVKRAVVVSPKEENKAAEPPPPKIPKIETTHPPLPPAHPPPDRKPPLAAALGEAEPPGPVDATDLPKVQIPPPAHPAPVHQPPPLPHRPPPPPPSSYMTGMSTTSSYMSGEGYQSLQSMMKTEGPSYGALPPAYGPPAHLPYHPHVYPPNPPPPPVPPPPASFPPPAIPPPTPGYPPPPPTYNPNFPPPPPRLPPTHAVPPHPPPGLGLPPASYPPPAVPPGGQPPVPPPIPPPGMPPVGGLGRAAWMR
Chain of CDK7/cyclin H/MAT1 complex (P50613 whole entry, species assumed): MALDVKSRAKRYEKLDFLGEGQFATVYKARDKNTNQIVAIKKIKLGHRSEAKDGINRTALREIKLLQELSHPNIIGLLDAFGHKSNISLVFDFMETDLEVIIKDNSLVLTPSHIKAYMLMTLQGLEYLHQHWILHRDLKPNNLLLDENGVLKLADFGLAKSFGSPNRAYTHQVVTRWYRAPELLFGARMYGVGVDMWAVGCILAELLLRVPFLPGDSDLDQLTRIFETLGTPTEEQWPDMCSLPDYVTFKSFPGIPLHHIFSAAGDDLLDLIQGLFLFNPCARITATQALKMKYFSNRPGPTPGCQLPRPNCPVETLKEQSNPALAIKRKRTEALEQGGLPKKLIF
Chain of CDK7/cyclin H/MAT1 complex (P51946 whole entry partner, species assumed): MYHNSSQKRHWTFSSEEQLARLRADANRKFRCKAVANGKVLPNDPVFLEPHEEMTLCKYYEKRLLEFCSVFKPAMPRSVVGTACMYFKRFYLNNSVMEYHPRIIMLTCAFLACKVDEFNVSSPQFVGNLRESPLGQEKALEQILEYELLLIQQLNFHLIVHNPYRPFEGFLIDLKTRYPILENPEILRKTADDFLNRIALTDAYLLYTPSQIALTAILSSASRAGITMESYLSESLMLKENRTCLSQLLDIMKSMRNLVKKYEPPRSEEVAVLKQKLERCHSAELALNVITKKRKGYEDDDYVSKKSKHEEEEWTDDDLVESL
Chain of CDK7/cyclin H/MAT1 complex (P51948 whole entry partner, species assumed): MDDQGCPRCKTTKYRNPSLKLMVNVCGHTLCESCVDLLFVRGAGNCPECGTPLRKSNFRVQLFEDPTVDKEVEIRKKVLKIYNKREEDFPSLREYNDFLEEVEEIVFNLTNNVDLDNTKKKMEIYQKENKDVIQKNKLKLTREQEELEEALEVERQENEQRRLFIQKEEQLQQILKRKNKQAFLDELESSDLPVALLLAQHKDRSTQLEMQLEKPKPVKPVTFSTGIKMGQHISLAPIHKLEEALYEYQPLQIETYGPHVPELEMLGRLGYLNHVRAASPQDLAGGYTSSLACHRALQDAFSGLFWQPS

Regarding `C[C@H]1COCCN1c1ccc2c(-c3nc(N[C@H]4CCCNC4)ncc3C(F)(F)F)c[nH]c2n1` [Compound 18, 4-(6-((S)-3-methylmorpholinyl)-1H-pyrrolo[2,3-b]pyridin-3-yl)-N—((S)-piperidin-3-yl)-5-(trifluoromethyl)pyrimidine-2-amine], the IC50 – broadly, the point on the concentration scale where inhibition reaches its midpoint – stood at 7.2 nM with A2780 cells; 2290 nM in experiment [1]; 6.7 nM with HCC70 cells; 9.47 nM in experiment [2]; 2870 nM on CDK9/CyclinT1; 6560 nM on CDK2/cyclin E1 complex.
As to `C[C@@H]1COCCN1c1ccc2c(-c3nc(N[C@H]4CCCNC4)ncc3C(F)(F)F)c[nH]c2n1` [Compound 19, 4-(6-((R)-3-methylmorpholinyl)-1H-pyrrolo[2,3-b]pyridin-3-yl)-N—((S)-piperidin-3-yl)-5-(trifluoromethyl)pyrimidine-2-amine], the IC50 is 185 nM in the experiment on A2780 cells; 8720 nM in experiment [1]; 220 nM in the experiment with HCC70 cells; 159 nM in experiment [2]; > 10000 nM on CDK9/CyclinT1; > 10000 nM at CDK2/cyclin E1 complex.
For the molecule `N#CC1CCN(c2ccc3c(-c4nc(N[C@H]5CCCNC5)ncc4C(F)(F)F)c[nH]c3n2)CC1` [Compound 20, (S)-1-(3-(2-(piperidine-3-amino)-5-(trifluoromethyl)pyrimidin-4-yl)-1H-pyrrolo[2,3-b]pyridin-6-yl)piperidine-4-nitrile], the IC50 came out at 8.3 nM with A2780 cells; 765 nM in experiment [1]; 13.7 nM with HCC70 cells; 8.43 nM in experiment [2]; 2970 nM on CDK9/CyclinT1; 3280 nM on CDK2/cyclin E1 complex.
Consider `CC1(C#N)CN(c2ccc3c(-c4nc(N[C@H]5CCCNC5)ncc4C(F)(F)F)c[nH]c3n2)C1` [Compound 21, (S)-3-methyl-1-(3-(2-(piperidine-3-amino)-5-(trifluoromethyl)pyrimidin-4-yl)-1H-pyrrolo[2,3-b]pyridin-6-yl)azetidine-3-formonitrile], for which the IC50 in the experiment on A2780 cells is 19 nM; in experiment [1], 818 nM; with HCC70 cells it was 27.8 nM; in experiment [2] it was 8.81 nM; on CDK9/CyclinT1, 2980 nM; on CDK2/cyclin E1 complex it was 4330 nM.
On to `FC(F)(F)c1cnc(N[C@H]2CCCNC2)nc1-c1c[nH]c2nc(N3CCCOCC3)ccc12` [Compound 22, (S)-4-(6-(1,4-oxazepan-4-yl)-1H-pyrrolo[2,3-b]pyridin-3-yl)-N-(piperidin-3-yl)-5-(trifluoromethyl)pyrimidine-2-amine], for which the IC50 was 4.7 nM in the experiment with A2780 cells; 783 nM in experiment [1]; 10.7 nM in the experiment with HCC70 cells; 7.05 nM in experiment [2]; 2860 nM on CDK9/CyclinT1; 3050 nM at CDK2/cyclin E1 complex.
Take `CC1(O)CCN(c2ccc3c(-c4nc(N[C@H]5CCCNC5)ncc4C(F)(F)F)c[nH]c3n2)CC1` [Compound 23, (S)-4-methyl-1-(3-(2-(piperidine-3-amino)-5-(trifluoromethyl)pyrimidin-4-yl)-1H-pyrrolo[2,3-b]pyridin-6-yl)piperidin-4-ol]: the half-maximal inhibitory concentration (IC50) in the experiment with A2780 cells stood at 8.8 nM; in experiment [1], 783 nM; with HCC70 cells it was 19.9 nM; in experiment [2], 13.1 nM; on CDK9/CyclinT1 it was 2610 nM; at CDK2/cyclin E1 complex, 4310 nM.
Consider `FC(F)(F)c1cnc(N[C@H]2CCCNC2)nc1-c1c[nH]c2nc(N3CCN(C4COC4)CC3)ccc12` [Compound 24, (S)-4-(6-(4-(oxetan-3-yl)piperazin-1-yl)-1H-pyrrolo[2,3-b]pyridin-3-yl)-N-(piperidin-3-yl)-5-(trifluoromethyl)pyrimidine-2-amine], for which the IC50 with A2780 cells is 110 nM; in experiment [1], 1970 nM; with HCC70 cells, 72 nM; in experiment [2], 17.4 nM; on CDK9/CyclinT1, 5250 nM; at CDK2/cyclin E1 complex, 8500 nM.
In the case of `O=S1(=O)CCN(c2ccc3c(-c4nc(N[C@H]5CCCNC5)ncc4C(F)(F)F)c[nH]c3n2)CC1` [Compound 25, (S)-4-(3-(2-(piperidine-3-amino)-5-(trifluoromethyl)pyrimidin-4-yl)-1H-pyrrolo[2,3-b]pyridin-6-yl)thiomorpholine-1,1-dioxide], the IC50 was found to be 7.9 nM with A2780 cells; 277 nM in experiment [1]; 11 nM in the experiment with HCC70 cells; 6.5 nM in experiment [2]; 402 nM on CDK9/CyclinT1; 1040 nM on CDK2/cyclin E1 complex.
For `C[C@H]1COCCN1c1ccc2c(-c3nc(N[C@H]4CCC(C)(C)NC4)ncc3C(F)(F)F)c[nH]c2n1` [Compound 26, N—((S)-6,6-dimethylpiperidin-3-yl)-4-(6-((S)-3-methylmorpholinyl)-1H-pyrrolo[2,3-b]pyridin-3-yl)-5-(trifluoromethyl)pyrimidine-2-amine], the IC50 in the experiment on A2780 cells was 30 nM; in experiment [1] it was > 10000 nM; with HCC70 cells it was 52 nM; in experiment [2], 9.5 nM; on CDK9/CyclinT1, > 10000 nM; at CDK2/cyclin E1 complex, > 10000 nM.
Turning to `FC(F)(F)c1cnc(N[C@H]2CCCNC2)nc1-c1c[nH]c2nc(C3=CCOCC3)ccc12` [Compound 27, (S)-4-(6-(3,6-dihydro-2H-pyran-4-yl)-1H-pyrrolo[2,3-b]pyridin-3-yl)-N-(piperidin-3-yl)-5-(trifluoromethyl)pyrimidine-2-amine], the IC50 in the experiment with A2780 cells is 5.1 nM; in experiment [1], 418 nM; with HCC70 cells, 30 nM; in experiment [2] it was 2.17 nM; at CDK9/CyclinT1, 1500 nM; at CDK2/cyclin E1 complex, 1120 nM.
